Reference: the supplement of paper PMC10307832

What was measured:
Assay in all cases: relative viability (nuclei count vs DMSO), 5 days (fraction); higher = more cells survive
[1] = compound: CC1=CN=C(N=C1C2=CNC(=C2)C(=O)N[C@H](CO)C3=CC(=CC=C3)Cl)NC4=C(C=C(C=C4)F)Cl [VX-11e] + NC(=O)Nc1cc(-c2cccc(F)c2)sc1C(=O)N[C@H]1CCCNC1 [AZD7762] (partner 0.2 µM)
In short: (§1)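 Relative viability equals treated-well nuclei counts divided by vehicle-well nuclei counts. Counts came from 4× images of lung cancer cell lines grown in 1536-well plates for 5 days after pin-tool dosing on the day after seeding. Dosing used one drug alone or a fixed anchor-drug dose plus five library-drug doses (not always all listed) in √10 steps, and values are medians of duplicate plates.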

[2] = compound: CC1=CN=C(N=C1C2=CNC(=C2)C(=O)N[C@H](CO)C3=CC(=CC=C3)Cl)NC4=C(C=C(C=C4)F)Cl [VX-11e] + COc1cc2c(Oc3ccc(NC(=O)C4(C(=O)Nc5ccc(F)cc5)CC4)cc3F)ccnc2cc1OCCCN1CCOCC1 [Foretinib] (partner 0.25 µM)
In short: as §1

[3] = compound: CC1=CN=C(N=C1C2=CNC(=C2)C(=O)N[C@H](CO)C3=CC(=CC=C3)Cl)NC4=C(C=C(C=C4)F)Cl [VX-11e] + CCNC(=O)c1noc(-c2cc(C(C)C)c(O)cc2O)c1-c1ccc(CN2CCOCC2)cc1 [Luminespib] (partner 0.01 µM)
In short: as §1

[4] = compound: CC1=CN=C(N=C1C2=CNC(=C2)C(=O)N[C@H](CO)C3=CC(=CC=C3)Cl)NC4=C(C=C(C=C4)F)Cl [VX-11e] + Cc1cc(Nc2cc(N3CCN(C)CC3)nc(Sc3ccc(NC(=O)C4CC4)cc3)n2)n[nH]1 [Tozasertib] (partner 0.1 µM)
In short: as §1

Cell Line | relative viability ([1]; first compound 0.04 µM) | relative viability ([1]; first compound 0.1265 µM) | relative viability ([1]; first compound 0.4 µM) | relative viability ([1]; first compound 1.265 µM) | relative viability ([1]; first compound 4 µM) | relative viability ([2]; first compound 0.04 µM) | relative viability ([2]; first compound 0.1265 µM) | relative viability ([2]; first compound 4 µM) | relative viability ([3]; first compound 0.04 µM) | relative viability ([3]; first compound 0.1265 µM) | relative viability ([3]; first compound 0.4 µM) | relative viability ([3]; first compound 1.265 µM) | relative viability ([3]; first compound 4 µM) | relative viability ([4]; first compound 0.04 µM) | relative viability ([4]; first compound 0.1265 µM) | relative viability ([4]; first compound 0.4 µM) | relative viability ([4]; first compound 1.265 µM) | relative viability ([4]; first compound 4 µM) | relative viability ([2]; first compound 0.4 µM) | relative viability ([2]; first compound 1.265 µM)
201T | 0.592 | 0.586 | 0.562 | 0.626 | 0.74 | 1.12 | 0.959 | 1.03 | 1.06 | 1.06 | 1.09 | 1.05 | 0.918 | 0.99 | 0.923 | 0.941 | 0.909 | 0.774 | – | –
A-427 | 0.743 | 0.641 | 0.633 | 0.566 | 0.438 | 1.14 | 1.01 | 0.342 | 1.05 | 0.865 | 0.642 | 0.687 | 0.483 | 0.181 | 0.18 | 0.132 | 0.143 | 0.16 | 0.835 | 0.805
ABC-1 | 0.988 | 0.785 | 0.711 | 0.779 | 0.572 | 1.48 | 0.996 | 0.826 | – | – | 0.495 | 0.436 | 0.518 | 0.137 | 0.219 | 0.175 | 0.123 | 0.188 | 0.899 | 1.16
BEN | 0.481 | 0.635 | 0.823 | 0.634 | 0.567 | – | 0.633 | 0.557 | – | 0.241 | 0.475 | 0.376 | 0.264 | – | 0.477 | 0.642 | 0.456 | 0.417 | 0.966 | 0.451
CAL-12T | 0.639 | 0.641 | 0.575 | 0.533 | 0.544 | 1.1 | 1.03 | 0.561 | 0.392 | 0.434 | 0.462 | 0.433 | 0.276 | 0.384 | 0.25 | 0.26 | 0.247 | 0.155 | 1.07 | 1.07
ChaGo-K-1 | 0.889 | 0.801 | 0.796 | 0.896 | 0.767 | 0.878 | 0.855 | 0.928 | 0.633 | 0.646 | 0.561 | 0.688 | 0.507 | 0.219 | 0.233 | 0.234 | 0.188 | 0.186 | 0.941 | 0.923
EKVX | 0.634 | 0.74 | 0.764 | 0.723 | 0.448 | 0.765 | 0.927 | 0.466 | 0.714 | 0.894 | 0.723 | 0.85 | 0.52 | 0.385 | 0.398 | 0.342 | 0.257 | 0.163 | 0.812 | 0.675
EMC-BAC-2 | 1.2 | 0.96 | 1.13 | 1 | 0.855 | 1.05 | 0.921 | 0.697 | 1.21 | 1.19 | 1.2 | 1.19 | 0.924 | 0.313 | 0.272 | 0.373 | 0.382 | 0.353 | 1.08 | 0.982
EPLC-272H | 0.147 | 0.21 | – | 0.201 | 0.285 | 0.622 | 0.559 | 0.261 | 0.173 | 0.302 | – | 0.293 | 0.148 | 0.224 | 0.262 | – | 0.193 | 0.205 | – | 0.361
H3255 | 0.745 | 0.834 | 0.859 | 0.923 | 0.825 | 0.734 | 0.963 | 0.948 | 0.773 | 0.963 | 0.819 | 0.686 | 0.89 | 0.732 | 0.698 | 0.562 | 0.595 | 0.724 | 0.87 | 0.918
HARA | 0.575 | 0.391 | 0.258 | 0.281 | 0.306 | 0.857 | 0.856 | 0.343 | 0.677 | 0.609 | 0.637 | 0.695 | 0.297 | 0.106 | 0.118 | 0.119 | 0.0971 | 0.0712 | 0.841 | 0.734
HCC-15 | 1.41 | 1.18 | – | 1.11 | 0.769 | 1.07 | 0.897 | 0.357 | 0.264 | 0.363 | 0.207 | 0.18 | 0.175 | 0.428 | 0.35 | 0.306 | 0.153 | 0.172 | – | 0.558
HCC-827 | 0.162 | 0.222 | 0.212 | 0.349 | 0.21 | 1.07 | 1.09 | 0.739 | 0.605 | 0.422 | 0.616 | 0.826 | 0.477 | 0.396 | 0.401 | 0.421 | 0.401 | 0.347 | 1.04 | 1.13
HOP-62 | 0.486 | 0.644 | 0.234 | 0.315 | 0.166 | 1.22 | 1.03 | 0.589 | 1.01 | 0.843 | 0.946 | 0.687 | 0.406 | 0.344 | 0.368 | 0.402 | 0.321 | 0.24 | 1.16 | 0.859
LC-2-ad | 0.913 | 0.844 | 0.798 | 0.458 | 0.468 | 0.883 | 0.822 | 0.673 | 1.18 | 0.947 | 0.633 | 0.883 | 0.815 | 0.522 | 0.45 | 0.319 | 0.383 | 0.369 | 0.983 | 0.747
